Source: patent US20110319482A1, “NOVEL TREATMENTS” (priority 2008, published 2011)

Tests used:
[1] = clinical trials, oral administration to man: plasma pharmacokinetics; assay type: in vivo; details: human, oral compositions as described in Table 1, administered orally to man
Description: When taken during a migraine attack TMAX may be more variable and prolonged.

[2] = system: migraine with aura; assay: single centre, double-blind, randomised, placebo controlled crossover study of prophylaxis of migraine in patients with migraine with aura; assay type: in vivo; details: 31 patients with migraine with aura, 20 or 40 mg po od, 12 week treatment period
Protocol: A single centre, double-blind, randomised, placebo controlled crossover study to evaluate the efficacy and tolerability of tonabersat in the prophylaxis of migraine in patients presenting with migraine with aura was conducted. Twelve week treatment period followed by a 4 week wash-out period before cross-over to 12 weeks treatment with the alternative trial medication. To investigate the efficacy of tonabersat compared to placebo in the reduction of the number of aura attacks and the number of migraine headache days in patients with migraine with aura. Following screening, patients were randomised to active or placebo treatment for 12 weeks. During the first two weeks of the treatment period, patients received treatment with tonabersat 20 mg (one tablet daily) or matching placebo. After two weeks, the dose was increased to tonabersat 40 mg per day (two tablets taken once daily [od]) with a similar increase in the number of placebo tablets taken. Depending on tolerability during the treatment period, the dose may have been reduced to 20 mg per day (or one placebo tablet) for the remainder of the treatment period. On completion of the first treatment period patients received placebo tablets (one tablet daily) for 4 weeks before starting the second treatment period when the alternative trial medication was administered. The design of the second period was the same as the first. […]

With CC(=O)c1ccc2c(c1)[C@H](NC(=O)c1ccc(F)c(Cl)c1)[C@H](O)C(C)(C)O2 [tonabersat, cis-6-acetyl-4-(S)-(3-chloro-4-fluorobenzoylamino)-3,4-dihydro-2,2-dimethyl-2H-1-benzopyran-3-(S)-ol] the half-life ([1]; read-out: terminal elimination half life) was 24 to 40 h, the Tmax ([1]; read-out: time to maximum plasma concentration (TMAX)) was 1 to 3 h and the “reduction in aura attacks compared to placebo” value ([2]; p=0.01) was 50%. For the same molecule, the “reduction in migraine headache days compared to placebo” value ([2]; p=0.08) was 37.5%.
